Results taken from patent US7964624B1, “Inhibitors of serine proteases” (priority 2005, dated 2011).

Target: T1, full-length hepatitis C viral protein NS3•4A (Hepatitis C virus genotype 1a, UniProt P27958)
T1 construct: hexa-histidine (N); made in house; host or cells: Sf9 insect cells (baculovirus, pVL1392)
Assay: biochemical
Parameters: species or system HCV sub-type strain 1a
Conditions: Enzyme Assay 2 (HCV NS3 Peptide Cleavage Assay) activity, apparent Ki class

Compared with CCC[C@H](NC(=O)[C@@H]1C[C@]2(CC(c3cccc(Cl)c3)=NO2)CN1C(=O)[C@@H](NC(=O)CC1CC2CCC1C2)C1(OC)CC1)C(=O)C(=O)NC1CC1 (stereo partly shown) [Compound 346], CNC(=O)C(=O)[C@H](CC1CC1)NC(=O)[C@@H]1C[C@]2(CC(c3cccc(Cl)c3)=NO2)CN1C(=O)[C@@H](NC(=O)CC1CCCCC1)C1(OC)CC1 [Compound 617] is higher in Ki: under 100 nM for the first, 100 to 500 nM for the second.

CCC[C@H](NC(=O)[C@@H]1C[C@]2(CC(c3ccc(F)c(Cl)c3)=NO2)CN1C(=O)[C@@H](NC(=O)CC1CCCCC1)C(C)(C)C)C(=O)C(N)=O [Compound 621] and CCC[C@H](NC(=O)[C@@H]1C[C@]2(CC(c3ccc(F)c(Cl)c3)=NO2)CN1C(=O)[C@@H](NC(=O)CC1CCCCCC1)C(C)(C)C)C(=O)C(=O)NC1CC1 [Compound 611] cannot be ordered by Ki: under 100 nM for the first, under 100 nM for the second.

First: CCC[C@H](NC(=O)[C@@H]1C[C@]2(CC(c3cc(C)c(OC)c(C)c3)=NO2)CN1C(=O)[C@@H](NC(=O)CC(C)(C)C)C(C)(C)C)C(=O)C(N)=O [Compound 733]
Second: CCC[C@H](NC(=O)[C@@H]1C[C@]2(CC(c3cc(Cl)c(OC)cc3C)=NO2)CN1C(=O)[C@@H](NC(=O)CC(C)(C)C)C(C)(C)C)C(=O)C(=O)NC [Compound 607]
The Ki of the first is lower: under 100 nM for the first, 100 to 500 nM for the second. The first binds more tightly here.

CNC(=O)C(=O)[C@H](CC1CC1)NC(=O)[C@@H]1C[C@]2(CC(c3cccc(Cl)c3)=NO2)CN1C(=O)[C@@H](NC(=O)[C@H]1C[C@@H]1c1cccs1)C(C)(C)C [Compound 739] and CNC(=O)C(=O)[C@H](CC1CC1)NC(=O)[C@@H]1C[C@]2(CC(c3cccc(Cl)c3)=NO2)CN1C(=O)[C@@H](NC(=O)C1C[C@@H]1c1ccccc1)C(C)(C)C (stereo partly shown) [Compound 695] cannot be ordered by Ki: under 100 nM for the first, under 100 nM for the second.

CCC[C@H](NC(=O)[C@@H]1C[C@]2(CC(c3ccc(F)c(Cl)c3)=NO2)CN1C(=O)[C@@H](NC(=O)OC1CCCC1)C(C)(C)C)C(=O)C(N)=O [Compound 654] and CCC[C@H](NC(=O)[C@@H]1C[C@]2(CC(c3cc(Cl)ccc3OC)=NO2)CN1C(=O)[C@@H](NC(=O)CC1CCCCCC1)C(C)(C)C)C(=O)C(N)=O [Compound 637] cannot be ordered by Ki: under 100 nM for the first, under 100 nM for the second.

CNC(=O)C(=O)[C@H](CC1CC1)NC(=O)[C@@H]1C[C@]2(CC(c3cc(Cl)c(OC)cc3OC)=NO2)CN1C(=O)[C@@H](NC(=O)CC1CCCCCC1)C(C)(C)C [Compound 616] and CCC[C@H](NC(=O)[C@@H]1C[C@]2(CC(c3cc(Cl)c(OC)cc3OC)=NO2)CN1C(=O)[C@@H](NC(=O)CC1CCCCCC1)C(C)(C)C)C(=O)C(=O)NC1CC1 [Compound 129] cannot be ordered by Ki: under 100 nM for the first, under 100 nM for the second.

COc1c(C)cc(C2=NO[C@]3(C2)C[C@@H](C(=O)N[C@@H](CC2CC2)C(=O)C(=O)NC2CC2)N(C(=O)[C@@H](NC(=O)OC(C)(C)C)C(C)(C)C)C3)cc1C [Compound 757] and CCC[C@H](NC(=O)[C@@H]1C[C@]2(CC(c3cc(C)c(OCC4CC4)c(C)c3)=NO2)CN1C(=O)[C@@H](NC(=O)CC1CCCCC1)C(C)(C)C)C(=O)C(=O)NC1CC1 [Compound 406] cannot be ordered by Ki: under 100 nM for the first, under 100 nM for the second.

CCC[C@H](NC(=O)[C@@H]1C[C@]2(CC(c3cccc4cccnc34)=NO2)CN1C(=O)[C@@H](NC(=O)CC1CCCCC1)C(C)(C)C)C(=O)C(=O)NC [Compound 68] and CC(C)(C)[C@H](NC(=O)CC1CCCCC1)C(=O)N1C[C@@]2(CC(c3cccc4cccnc34)=NO2)C[C@H]1C(=O)N[C@@H](CC1CC1)C(=O)C(N)=O [Compound 603] cannot be ordered by Ki: under 100 nM for the first, under 100 nM for the second.

CCC[C@H](NC(=O)[C@@H]1C[C@]2(CC(c3cc(Cl)c(OC)cc3OC)=NO2)CN1C(=O)[C@@H](NC(=O)CC(C)(C)C)C(C)(C)C)C(=O)C(=O)NC1CC1 [Compound 297] and CCC[C@H](NC(=O)[C@@H]1C[C@]2(CC(c3cc(Cl)c(OC)cc3OC)=NO2)CN1C(=O)[C@@H](NC(=O)CC1CC2CCC1C2)C(C)(C)C)C(=O)C(=O)NC1CC1 (stereo partly shown) [Compound 446] cannot be ordered by Ki: under 100 nM for the first, under 100 nM for the second.

COc1cc(C)c(C2=NO[C@]3(C2)C[C@@H](C(=O)N[C@@H](CC2CC2)C(=O)C(=O)NC2CC2)N(C(=O)[C@@H](NC(=O)CC2CCCCC2)C(C)(C)C)C3)cc1Cl [Compound 709] and CCC[C@H](NC(=O)[C@@H]1C[C@]2(CC(c3cc(Cl)ccc3OC)=NO2)CN1C(=O)[C@@H](NC(=O)CC1CCCCCC1)C(C)(C)C)C(=O)C(=O)NC1CC1 [Compound 649] fall in the same range of Ki: 100 to 500 nM for the first, 100 to 500 nM for the second.

COc1ccc(Cl)cc1C1=NO[C@]2(C1)C[C@@H](C(=O)N[C@@H](CC1CC1)C(=O)C(N)=O)N(C(=O)[C@@H](NC(=O)CC1CCCCCC1)C(C)(C)C)C2 [Compound 635] and CCC[C@H](NC(=O)[C@@H]1C[C@]2(CC(c3cc(Cl)cc(OC)c3)=NO2)CN1C(=O)[C@@H](NC(=O)CC1CCCCC1)C(C)(C)C)C(=O)C(=O)NC1CC1 [Compound 250] cannot be ordered by Ki: under 100 nM for the first, under 100 nM for the second.

First: CCC[C@H](NC(=O)[C@@H]1C[C@]2(CC(c3cc(Cl)cc4c3OC(C)(C)C4)=NO2)CN1C(=O)[C@@H](NC(=O)CC1CCCCC1)C(C)(C)C)C(=O)C(=O)NC1CC1 [Compound 170]
Second: CCC[C@H](NC(=O)[C@@H]1C[C@]2(CC(c3cc(F)cc4c3OCOC4)=NO2)CN1C(=O)[C@@H](NC(=O)CC1CCCCC1)C(C)(C)C)C(=O)C(=O)NC1CC1 [Compound 305]
The Ki of the first is lower: under 100 nM for the first, 100 to 500 nM for the second.

CCC[C@H](NC(=O)[C@@H]1C[C@]2(CC(c3ccc(F)c(Cl)c3)=NO2)CN1C(=O)[C@@H](NC(=O)CC(C)(C)C)C(C)(C)C)C(=O)C(=O)NC [Compound 612] and CCC[C@H](NC(=O)[C@@H]1C[C@]2(CC(c3cc(Cl)c(OC)cc3C)=NO2)CN1C(=O)[C@@H](NC(=O)OC(C)(C)C)C(C)(C)C)C(=O)C(N)=O [Compound 626] cannot be ordered by Ki: under 100 nM for the first, under 100 nM for the second.

C[C@@H]1CC(CC(=O)N[C@H](C(=O)N2C[C@@]3(CC(c4cccc(Cl)c4)=NO3)C[C@H]2C(=O)N[C@@H](CC2CC2)C(=O)C(N)=O)C(C)(C)C)C[C@@H](C)O1 (stereo partly shown) [Compound 468] and CCC[C@H](NC(=O)[C@@H]1C[C@]2(CC(c3cccc(Cl)c3)=NO2)CN1C(=O)[C@@H](NC(=O)[C@H]1C[C@@H]1c1ccccc1)C(C)(C)C)C(=O)C(=O)NC1CC1 [Compound 697] cannot be ordered by Ki: under 100 nM for the first, under 100 nM for the second.

Compared with CCC[C@H](NC(=O)[C@@H]1C[C@]2(CC(c3cccc(Cl)n3)=NO2)CN1C(=O)[C@@H](NC(=O)CC1CCCCC1)C(C)(C)C)C(=O)C(=O)NC1CC1 [Compound 786], CCC[C@H](NC(=O)[C@@H]1C[C@]2(CC(c3nccc4ccccc34)=NO2)CN1C(=O)[C@@H](NC(=O)OC1CCCC1)C(C)(C)C)C(=O)C(=O)NC1CC1 [Compound 661] is lower in Ki: 100 to 500 nM for the first, under 100 nM for the second. The second binds more tightly here.

Same assay, conditions: Enzyme Assay 2, HCV NS3 Peptide Cleavage Assay, apparent Ki

Compared with CCC[C@H](NC(=O)[C@@H]1C[C@]2(CC(N3CCc4ccccc4C3)=NO2)CN1C(=O)[C@@H](NC(=O)OC1CCCC1)C(C)(C)C)C(=O)C(=O)NC1CC1 [Compound 962], CCC[C@H](NC(=O)[C@@H]1C[C@]2(CC(c3cc(C)c(OCC)c(C)c3)=NO2)CN1C(=O)[C@@H](NC(=O)OC1CCCC1)C(C)(C)C)C(=O)C(=O)NC1CC1 [Compound 860] is lower in Ki: 100 to 500 nM for the first, under 100 nM for the second. The second binds more tightly here.

Compared with CNC(=O)C(=O)[C@H](CC1CC1)NC(=O)[C@@H]1C[C@]2(CC(c3cccc(Cl)c3)=NO2)CN1C(=O)[C@@H](NC(=O)[C@@H]1C[C@H]1c1ccccn1)C(C)(C)C [Compound 869], CNC(=O)C(=O)[C@H](CC1CC1)NC(=O)[C@@H]1C[C@]2(CC(c3cccc(Cl)c3)=NO2)CN1C(=O)[C@@H](NC(=O)[C@@H]1C[C@H]1c1cccnc1)C(C)(C)C [Compound 885] is higher in Ki: under 100 nM for the first, 100 to 500 nM for the second. The first binds more tightly here.

CCC[C@H](NC(=O)[C@@H]1C[C@]2(CC(c3cc(Cl)c(OC)cc3OC)=NO2)CN1C(=O)[C@@H](NC(=O)[C@@H]1CC1c1ccccc1)C(C)(C)C)C(=O)C(N)=O (stereo partly shown) [Compound 801] and CNC(=O)C(=O)[C@H](CC1CC1)NC(=O)[C@@H]1C[C@]2(CC(c3cc(C)c(OC)c(C)c3)=NO2)CN1C(=O)[C@@H](NC(=O)[C@@H]1CC1c1ccccc1)C(C)(C)C (stereo partly shown) [Compound 798] cannot be ordered by Ki: under 100 nM for the first, under 100 nM for the second.

CCOc1cc(OC)c(C2=NO[C@]3(C2)C[C@@H](C(=O)N[C@@H](CC2CC2)C(=O)C(N)=O)N(C(=O)[C@@H](NC(=O)OC(C)(C)C)C(C)(C)C)C3)cc1Cl [Compound 971] and CCC[C@H](NC(=O)[C@@H]1C[C@]2(CC(c3cc(Cl)c(OCC)cc3OC)=NO2)CN1C(=O)[C@@H](NC(=O)CC1CCCCC1)C(C)(C)C)C(=O)C(=O)NC1CC1 [Compound 818] cannot be ordered by Ki: under 100 nM for the first, under 100 nM for the second.

Compared with CCC[C@H](NC(=O)[C@@H]1C[C@]2(CC(c3cccc(Cl)c3)=NO2)CN1C(=O)[C@@H](NC(=O)[C@@H]1CC12CCOCC2)C(C)(C)C)C(=O)C(=O)NC [Compound 931], CCC[C@H](NC(=O)[C@@H]1C[C@]2(CC(c3cccc(Cl)c3)=NO2)CN1C(=O)[C@@H](NC(=O)[C@@H]1CC12CCOCC2)C(C)(C)C)C(=O)C(=O)NC1CC1 [Compound 923] is lower in Ki: 100 to 500 nM for the first, under 100 nM for the second. The second binds more tightly here.

First: CCC[C@H](NC(=O)[C@@H]1C[C@]2(CC(c3cccc(Cl)c3)=NO2)CN1C(=O)[C@@H](NC(=O)[C@H]1C[C@@H]1C1CCCCC1)C(C)(C)C)C(=O)C(=O)NC [Compound 928]
Second: CCC[C@H](NC(=O)[C@@H]1C[C@]2(CC(c3cccc(Cl)c3)=NO2)CN1C(=O)[C@@H](NC(=O)[C@H]1C[C@@H]1C1CCCCC1)C(C)(C)C)C(=O)C(N)=O [Compound 932]
The Ki of the first is higher: 100 to 500 nM for the first, under 100 nM for the second.

First: CCC[C@H](NC(=O)[C@@H]1C[C@]2(CC(c3cccc(Cl)c3)=NO2)CN1C(=O)[C@@H](NC(=O)[C@H]1C[C@@H]1C1CCCCC1)C(C)(C)C)C(=O)C(=O)NC1CC1 [Compound 920]
Second: CCC[C@H](NC(=O)[C@@H]1C[C@]2(CC(c3cc(C)c(OCC)c(C)c3)=NO2)CN1C(=O)[C@@H](NC(=O)[C@@H]1C[C@H]1C1CCCCC1)C(C)(C)C)C(=O)C(=O)NC1CC1 [Compound 984]
The Ki of the first is higher: 100 to 500 nM for the first, under 100 nM for the second. The second binds more tightly here.

For CCNC(=O)C(=O)[C@H](CC1CC1)NC(=O)[C@@H]1C[C@]2(CC(c3cccc(Cl)c3)=NO2)CN1C(=O)[C@@H](NC(=O)CC1CCCCC1)C(C)(C)C [Compound 836], the Ki was under 100 nM.

Same assay, conditions: read-out: Enzyme Assay 2 (HCV NS3 Peptide Cleavage Assay) activity; apparent Ki class

Work on CNC(=O)C(=O)[C@H](CC1CC1)NC(=O)[C@@H]1C[C@]2(CC(c3cccc(Cl)c3)=NO2)CN1C(=O)[C@@H](NC(=O)CC1CC2CCC1C2)C(C)(C)C (stereo partly shown) [Compound 777] yielded a Ki of under 100 nM.
